{"source": "patent US20110166112A1", "about": "“METHOD FOR STIMULATING PLATELET PRODUCTION” (Eisai, Inc., priority 2009, published 2011)", "tested_on": "subjects with chronic ITP", "assay": "Treatment-emergent bleeding events (WHO Bleeding Scale; Kaplan-Meier time to first bleeding event)", "format": "in vivo, human", "description": "As used herein, the term “bleeding” refers to any bleeding, as measured by the World Health Organization's Bleeding Scale (e.g., Grade 0=no bleeding; Grade 1=petechial bleeding; Grade 2=clinical significant mild blood loss; […]=gross (severe) blood loss, requiring transfusion; Grade 5=debilitating blood loss, retinal or cerebral associated with fatality). In some embodiments, the bleeding may be due to a low platelet count.\nBleeding Events. During the combined study period, 43 (67.2%) of the 64 subjects reported a treatment-emergent bleeding event (Table 23). Gingival bleeding was the most frequently reported bleeding event, occurring in 7 subjects (10.9%). All were grade 1 (n=6) or grade 2 (n=1) and none were considered to be related to study drug.\nUsing Kaplan-Meier methods, the estimated median time to the first bleeding event was 8 weeks (95% CI: 4.7-15.3 weeks) after initiation of E5501 (FIG. 5).", "key": {"[1]": {"conditions": "Lower ⅓ dose (2.5-<8.85 mg), N=22"}, "[2]": {"conditions": "Middle ⅓ dose (≧8.85-<13.5 mg), N=22"}, "[3]": {"conditions": "Upper ⅓ dose (≧13.5-≦25.7 mg), N=20"}}, "data": [{"smiles": "O=C(Nc1nc(-c2cc(Cl)cs2)c(N2CCN(C3CCCCC3)CC2)s1)c1cnc(N2CCC(C(=O)O)CC2)c(Cl)c1", "note": "[E5501, 1-(3-chloro-5-{[4-(4-chlorothiophen-2-yl)-5-(4-cyclohexylpiperazin-1-yl)thiazol-2-yl]carbamoyl}pyridine-2-yl)piperidine-4-carboxylic acid]", "values": [{"measurement": "Any TE bleeding event, % of subjects", "setting": "E5501 Total, N=64", "value": "(67.2) %"}, {"measurement": "Any TE bleeding event, n of subjects", "setting": "E5501 Total, N=64", "value": 43}, {"measurement": "TE bleeding event, highest toxicity Grade 1, % of subjects", "setting": "E5501 Total, N=64", "value": "(45.3) %"}, {"measurement": "TE bleeding event, highest toxicity Grade 1, n of subjects", "setting": "E5501 Total, N=64", "value": 29}, {"measurement": "TE bleeding event, highest toxicity Grade 2, % of subjects", "setting": "E5501 Total, N=64", "value": "(17.2) %"}, {"measurement": "TE bleeding event, highest toxicity Grade 2, n of subjects", "setting": "E5501 Total, N=64", "value": 11}, {"measurement": "TE bleeding event, highest toxicity Grade 3, % of subjects", "setting": "E5501 Total, N=64", "value": "(4.7) %"}, {"measurement": "TE bleeding event, highest toxicity Grade 3, n of subjects", "setting": "E5501 Total, N=64", "value": 3}, {"measurement": "TE bleeding event, highest toxicity Grade 4, % of subjects", "setting": "E5501 Total, N=64", "value": "(1.6) %"}, {"measurement": "TE bleeding event, highest toxicity Grade 4, n of subjects", "setting": "E5501 Total, N=64", "value": 1}, {"measurement": "TE bleeding event, highest toxicity Grade 5, n of subjects", "setting": "E5501 Total, N=64", "value": 0}, {"measurement": "estimated median time to the first bleeding event", "setting": "Kaplan-Meier, after initiation of E5501, 95% CI: 4.7-15.3 weeks", "value": 8, "unit": "weeks"}, {"measurement": "Any TE bleeding event, % of subjects", "setting": "[1]", "value": "(68.2) %"}, {"measurement": "Any TE bleeding event, n of subjects", "setting": "[1]", "value": 15}, {"measurement": "TE bleeding event, highest toxicity Grade 1, % of subjects", "setting": "[1]", "value": "(50.0) %"}, {"measurement": "TE bleeding event, highest toxicity Grade 1, n of subjects", "setting": "[1]", "value": 11}, {"measurement": "TE bleeding event, highest toxicity Grade 2, % of subjects", "setting": "[1]", "value": "(9.1) %"}, {"measurement": "TE bleeding event, highest toxicity Grade 2, n of subjects", "setting": "[1]", "value": 2}, {"measurement": "TE bleeding event, highest toxicity Grade 3, % of subjects", "setting": "[1]", "value": "(4.5) %"}, {"measurement": "TE bleeding event, highest toxicity Grade 3, n of subjects", "setting": "[1]", "value": 1}, {"measurement": "TE bleeding event, highest toxicity Grade 4, % of subjects", "setting": "[1]", "value": "(4.5) %"}, {"measurement": "TE bleeding event, highest toxicity Grade 4, n of subjects", "setting": "[1]", "value": 1}, {"measurement": "TE bleeding event, highest toxicity Grade 5, n of subjects", "setting": "[1]", "value": 0}, {"measurement": "Any TE bleeding event, % of subjects", "setting": "[2]", "value": "(63.6) %"}, {"measurement": "Any TE bleeding event, n of subjects", "setting": "[2]", "value": 14}, {"measurement": "TE bleeding event, highest toxicity Grade 1, % of subjects", "setting": "[2]", "value": "(40.9) %"}, {"measurement": "TE bleeding event, highest toxicity Grade 1, n of subjects", "setting": "[2]", "value": 9}, {"measurement": "TE bleeding event, highest toxicity Grade 2, % of subjects", "setting": "[2]", "value": "(13.6) %"}, {"measurement": "TE bleeding event, highest toxicity Grade 2, n of subjects", "setting": "[2]", "value": 3}, {"measurement": "TE bleeding event, highest toxicity Grade 3, % of subjects", "setting": "[2]", "value": "(9.1) %"}, {"measurement": "TE bleeding event, highest toxicity Grade 3, n of subjects", "setting": "[2]", "value": 2}, {"measurement": "TE bleeding event, highest toxicity Grade 4, n of subjects", "setting": "[2]", "value": 0}, {"measurement": "TE bleeding event, highest toxicity Grade 5, n of subjects", "setting": "[2]", "value": 0}, {"measurement": "Any TE bleeding event, % of subjects", "setting": "[3]", "value": 70.0, "unit": "%"}, {"measurement": "Any TE bleeding event, n of subjects", "setting": "[3]", "value": 14}, {"measurement": "TE bleeding event, highest toxicity Grade 1, % of subjects", "setting": "[3]", "value": 40.0, "unit": "%"}, {"measurement": "TE bleeding event, highest toxicity Grade 1, n of subjects", "setting": "[3]", "value": 8}, {"measurement": "TE bleeding event, highest toxicity Grade 2, % of subjects", "setting": "[3]", "value": 30.0, "unit": "%"}, {"measurement": "TE bleeding event, highest toxicity Grade 2, n of subjects", "setting": "[3]", "value": 6}, {"measurement": "TE bleeding event, highest toxicity Grade 3, n of subjects", "setting": "[3]", "value": 0}, {"measurement": "TE bleeding event, highest toxicity Grade 4, n of subjects", "setting": "[3]", "value": 0}, {"measurement": "TE bleeding event, highest toxicity Grade 5, n of subjects", "setting": "[3]", "value": 0}, {"measurement": "subjects with a clinically significant, grade 3 or 4 bleeding event", "setting": "combined study period", "value": "Four"}, {"measurement": "subjects reporting a treatment-emergent bleeding event", "setting": "combined study period, 64 subjects", "value": 67.2, "unit": "%"}]}]}
